# Assay results: patent publication US8394356B2, “Diagnostic imaging contrast agents with extended blood retention” (Lantheus Medical Imaging, Inc., priority 1995, dated 2013)
# Marks after values point to notes of the source that are not given here.
# Columns and labels:
# [1] = Rat plasma pharmacokinetic experiment (Gd153 radiolabeled complexes, tail vein injection)
# Experimental: In this application, blood half-life data, as measured by AUC-conc., represents experimentation in rats.
# (§1) Rats were injected intravenously (tail vein) with 0.1 mmol/kg of the Gd^153 radiolabeled complexes. Plasma concentrations were determined over 30 minutes and fit to a standard bi-exponential two-compartment model. […] In addition, the 1/T1s of the plasma samples were recorded (at 20 MHZ, 37° C.) to assess the efficacy as MRI agents.
# [2] = target: T1, HSA (Homo sapiens, UniProt P02768); assay: HSA binding by equilibrium dialysis or ultrafiltration, 4.5% weight/volume HSA, pH 7.4 buffer
# Text: (§2) In this application, the measurement of percent binding of the contrast agent to HSA has an error of approximately ±5%.
# [3] = 1/T1 of rat plasma samples after intravenous injection (efficacy as MRI agents); type: in vivo; conditions: rats, 0.1 mmol/kg i.v., plasma 1/T1 at 20 MHZ, 37° C., first 10 minutes
# Experimental: as §1
# [4] = target: T1, HSA
# Text: as §2
# T1 sequence (P02768 25-609): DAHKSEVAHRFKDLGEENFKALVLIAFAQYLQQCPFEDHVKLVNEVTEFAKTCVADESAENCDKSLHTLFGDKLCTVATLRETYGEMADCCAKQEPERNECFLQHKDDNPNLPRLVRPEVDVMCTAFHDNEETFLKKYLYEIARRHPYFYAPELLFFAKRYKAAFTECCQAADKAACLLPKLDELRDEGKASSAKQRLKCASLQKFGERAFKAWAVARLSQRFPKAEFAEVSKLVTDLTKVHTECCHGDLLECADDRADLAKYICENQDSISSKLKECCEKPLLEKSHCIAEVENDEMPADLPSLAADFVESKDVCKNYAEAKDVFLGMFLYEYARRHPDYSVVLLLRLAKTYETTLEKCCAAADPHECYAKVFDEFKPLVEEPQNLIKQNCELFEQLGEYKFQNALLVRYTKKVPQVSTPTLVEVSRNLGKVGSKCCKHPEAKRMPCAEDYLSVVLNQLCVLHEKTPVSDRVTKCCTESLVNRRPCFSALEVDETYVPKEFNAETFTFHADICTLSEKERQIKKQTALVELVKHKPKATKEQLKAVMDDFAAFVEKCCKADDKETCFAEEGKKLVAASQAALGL
"AUC-conc. (for 0 to 10 minutes) greater than that of analogue ([1]; 0 to 10 minutes, versus analogue drawing 27) [%]","fraction unbound ([2]; human, 4.5% weight/volume human serum albumin (HSA) solution)",Structure (SMILES),"t1/2 ([1]; elimination half-life, rats, 0.1 mmol/kg i.v. tail vein, plasma over 30 min, bi-exponential two-compartment model) [min]",blood half-life ([1]; rats) [min],"AUC-conc ([1]; rats, 0.1 mmol/kg i.v., first 10 minutes, error approx ±10%) [mM·min]","AUC-conc. from 0 to 10 minutes ([1]; two rats, 0.1 mmol/kg tail vein, Gd153-labeled, calculated with KaleidaGraph) [mM·min]","% bound to HSA ([2]; 4.5% HSA, error approx ±5%) [%]",AUC-1/T1 [3] [s^−1 * min],binding to HSA (in words) [4]
≥ 100,< 0.05,O=C(O)CN(CCN(CC(=O)O)CC(COP(=O)(O)OCCCCCCCCCCc1ccccc1)N(CC(=O)O)CC(=O)O)CC(=O)O (stereo not drawn),–,–,–,–,–,–,–
–,–,"O=C([O-])CN(CCN(CC(=O)[O-])CC(=O)O)CCN(CC(=O)[O-])CC(=O)O.[Gd+3] [DTPA, gadolinium diethylenetriamine-pentaacetic acid]",15.0,15,3.5,3.5,0,27,little or no binding to HSA
